Assay results reported in patent US8759379B2, “Inhibitors of cytochrome P450” (Gilead Sciences, Inc., priority 2008, dated 2014).

Molecular target: T1, CYP450 3A4 (Homo sapiens, UniProt P08684)
T1 construct: Pooled (n≧15 donors) human hepatic microsomal fraction was obtained from BD-Gentest; tissue BD-Gentest (Woburn, Mass.); host or cells: pooled human liver microsomes (n≥15 donors)
Assay: CYP3A inhibition assay (terfenadine oxidase, human hepatic microsomal fraction)
Format: biochemical
Conditions: pooled human hepatic microsomes 0.25 mg/mL, terfenadine 3 μM
Description: Pooled (n≧15 donors) human hepatic microsomal fraction was obtained from BD-Gentest (Woburn, Mass.) who also supplied hydroxy-terfenadine, 4′-hydroxydiclofenac and NADPH regenerating system. Ritonavir was prepared from commercial Norvir® oral solution (Abbott Laboratories, Abbott Park, Ill.). Other reagents were from Sigma-Aldrich (St. Louis, Mo.) and included terfenadine, fexofenadine, BRL 15572, diclofenac and mefenamic acid.
Incubations were performed in duplicate in 50 mM potassium phosphate buffer, pH 7.4 with NADPH regenerating system used as described by the manufacturer. […] The final substrate concentrations used were equal to the apparent Km values for the activities determined under the same conditions. Inhibitors were dissolved in DMSO, and the final concentration of DMSO, from both substrate and inhibitor vehicles, was 1% (v/v). Incubations were performed at 37° C. with shaking and were initiated by addition of substrate. Aliquots were then removed at 0, 7 and 15 minutes. Samples were quenched by treatment with an acetonitrile, formic acid, water (94.8%/0.2%/5%, v/v/v) mixture containing internal standard. Precipitated protein was removed by centrifugation at 3000 rpm for 10 min and aliquots of the supernatant were then subjected to LC-MS analysis.
The LC-MS system consisted of a Waters Acquity UPLC, with a binary solvent manager and a refrigerated (8° C.) sample organizer and sample manager, interfaced to a Micromass Quattro Premier tandem mass spectrometer operating in electrospray ionization mode. The column was a Waters Acquity UPLC BEH C18 2.1×50 mm, 1.7 μm […]. Mobile phases consisted of mixtures of acetonitrile, formic acid and water, the composition for mobile phase A being 1%/0.2%/98.8% (v/v/v) and that for mobile phase B being 94.8%/0.2%/5% (v/v/v). The injection volumes were 5 μL and the flow rate was 0.8 mL/min. Concentrations of metabolites were determined by reference to standard curves generated with authentic analytes under the same conditions as the incubations. […]

T1 sequence (P08684 whole entry): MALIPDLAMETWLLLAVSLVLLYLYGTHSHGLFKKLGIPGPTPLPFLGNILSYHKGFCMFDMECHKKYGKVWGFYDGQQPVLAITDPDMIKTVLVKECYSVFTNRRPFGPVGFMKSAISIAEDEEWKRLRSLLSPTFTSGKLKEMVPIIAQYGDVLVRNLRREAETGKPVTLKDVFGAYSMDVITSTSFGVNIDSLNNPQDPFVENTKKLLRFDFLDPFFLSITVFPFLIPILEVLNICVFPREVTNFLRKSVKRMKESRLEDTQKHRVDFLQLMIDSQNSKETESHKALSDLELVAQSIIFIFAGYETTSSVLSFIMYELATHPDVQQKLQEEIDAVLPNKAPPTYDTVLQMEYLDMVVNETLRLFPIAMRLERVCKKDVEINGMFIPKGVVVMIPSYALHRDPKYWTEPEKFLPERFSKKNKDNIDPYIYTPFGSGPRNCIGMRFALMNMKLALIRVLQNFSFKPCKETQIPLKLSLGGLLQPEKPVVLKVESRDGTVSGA

| IC50 | Compound |
| --- | --- |
| 501 to 1000 nM | CC(C)CN(CC[C@H](Cc1ccccc1)NC(=O)O[C@H]1CCOC1)S(=O)(=O)c1ccc(N)cc1 [Example 28] |
| 100 to 200 nM | CC(C)c1nc(CN(C)C(=O)N[C@H](C(=O)N[C@H](CCN(Cc2ccccc2)C(=O)OCc2cncs2)Cc2ccccc2)C(C)C)cs1 [Example 103] |
| 201 to 500 nM | CC(C)CN(CC[C@H](Cc1ccccc1)NC(=O)O[C@H]1CO[C@H]2OCC[C@H]21)S(=O)(=O)c1ccc(N)cc1 [Example 27] |
